Results: article PMC5100001, “Defining the extreme substrate specificity of Euonymus alatus diacylglycerol acetyltransferase, an unusual membrane-bound O-acyltransferase” (Bioscience Reports, 2016)

Biological target: T1, EaDAcT (Euonymus alatus diacylglycerol acetyltransferase) (Euonymus alatus, UniProt D6NSS8)
T1 construct: gene DAcT; full-length ORF in microsomes of S. cerevisiae H1246 (quadruple knockout); C-terminal HA tag printed for the pESC-URA coexpression construct; N-terminus MDAHQEIK translated from printed primer
Experiment: microsomal acyltransferase assay, ESI-MS quantification of sn-3 acyl TAG
Type: biochemical
Details: acyl donor 50 to 1500 uM, endogenous sn-1,2-DAG as acceptor, pH 7.5, 30 C

T1 sequence (D6NSS8 entry or part of it): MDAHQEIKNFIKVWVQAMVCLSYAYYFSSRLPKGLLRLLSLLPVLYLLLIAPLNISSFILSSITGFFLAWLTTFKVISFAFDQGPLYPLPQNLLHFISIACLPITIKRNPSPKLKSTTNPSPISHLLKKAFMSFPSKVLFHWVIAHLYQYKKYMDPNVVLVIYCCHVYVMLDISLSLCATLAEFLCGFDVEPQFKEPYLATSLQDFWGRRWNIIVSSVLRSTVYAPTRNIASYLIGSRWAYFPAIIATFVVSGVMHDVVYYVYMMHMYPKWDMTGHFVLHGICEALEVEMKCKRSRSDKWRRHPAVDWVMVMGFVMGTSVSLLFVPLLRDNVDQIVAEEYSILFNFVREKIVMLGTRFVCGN

CC(=O)SCCNC(=O)CCNC(=O)[C@H](O)C(C)(C)COP(=O)(O)OP(=O)(O)OC[C@H]1O[C@@H](n2cnc3c(N)ncnc32)[C@H](O)[C@@H]1OP(=O)(O)O [acetyl-CoA]
microsomal acyltransferase assay, ESI-MS quantification of sn-3 acyl TAG ([1,2-13C] labelled compound): higher rates of production formation were always achieved with acetyl-CoA compared with butyryl- or hexanoyl-CoA

CCCC(=O)SCCNC(=O)CCNC(=O)[C@H](O)C(C)(C)COP(=O)(O)OP(=O)(O)OC[C@H]1O[C@@H](n2cnc3c(N)ncnc32)[C@H](O)[C@@H]1OP(=O)(O)O [butyryl-CoA]
microsomal acyltransferase assay, ESI-MS quantification of sn-3 acyl TAG (unlabelled): Reaction rates with butyryl-CoA and hexanoyl-CoA were relatively similar to one another
